Columns and labels:
HT29 cells = experiment: Caspase-3 activity assay (apoptosis) in HT29 colon cancer cells; type: cell-based, human
Protocol: To assess the effect of C14 sphingadienes on colon cancer cell viability, HT29, DLD1 and SW480 colon cancer cells (available from American Type Culture Collection (ATCC), Manassas, Va.) were propagated in DME-H21 plus 10% serum until ⅔ confluent. Media was then replaced with serum-free media containing 10 μM sphingadienes (SD). After 24 hours, cells were harvested, and whole cell extracts were prepared for caspase-3 activity assays. Caspase-3 activity was determined using substrate Ac-DEVD-pNA (Biomol, Plymouth Meeting, Pa.) as described (Oskouian, B., et al., Proc Natl Acad Sci USA 103: 17384-17389, 2006).
In an additional experiment, HT29 cells were treated with 10 μM sphingoid bases or ceramides and caspase-3 activity was determined at 24 hours.
HT29 cells transfected with constitutively active myristoylated Akt (myr-Akt) were treated with 10 μM C14Δ4:6Sd and caspase 3 activity was determined at 24 hours.
(§1) HT29 cells were incubated for 6 hours with 10 μM C14Δ4:6Sd and the translational activity of the cell cytosol was measured with the DUAL-LUCIFERASE® Reporter Assay System (Promega, Madison, Wis.). […] In another experiment, HT29 cells were pretreated with inhibitors of p38 (SB20350), MEK (PD98059), PI3K (LY294002) and JNK (JNK inhibitor 2) and caspase 3 activity was determined following an 18 hour incubation with 10 μM C14Δ4:6Sd.

SW480 cells = experiment: Viability of SW480 colon cancer cells; type: cell-based; details: Homo sapiens; SW480, 10 μM, 24 hours; read-out: viability, % of controls
Protocol: (§2) The human colon cancer cell lines, HT29, SW480, HCT116 and DLD1 were treated with 10 μM C14Δ4:6Sd (also referred to herein as 2-aminotetradeca-4,6-diene-1,3-diol) and viability was determined at 24 hours.

DLD1 cells = experiment: Viability of DLD1 colon cancer cells; type: cell-based; details: Homo sapiens, DLD-1; DLD1, 10 μM, 24 hours; read-out: viability, % of controls
Protocol: as §2

LC3 = LC3 activation (LC3-1 to LC3-2 shift) by western blotting in SW480 cells transfected with myr-Akt; type: cell-based, human; details: various concentrations
Protocol: Autophagy is a cell process used to degrade components of the cytoplasm and functions as a cell survival mechanism during nutrient deprivation (P. Codogno and A J Meijer, Cell Death Differ. 2005 November; 12 Suppl 2:1509-18). […] In order to further investigate this phenomenon, LC3 (microtubule associated protein 1 light chain 3) was used as a marker for this process.
In one experiment, SW480 cells were transfected with a GFP-LC3 construct and treated for 4 h with 5 μM C14Δ4:6Sd. […] In another experiment, SW480 cells transfected with myr-Akt were treated with various concentrations of C14Δ4:6Sd and the amount of LC3 activation (shift from LC3-1 to LC3-2) was verified by western blotting.

4EBP = 4EBP phosphorylation by western blotting in SW480 cells; type: cell-based, human; details: SW480, 10 μM, up to 5 hours
protein synthesis = experiment: Translational activity of HT29 cell cytosol (DUAL-LUCIFERASE Reporter Assay System); type: cell-based, human; details: HT29, 10 μM, 6 hours
Protocol: as §1

[1] = biological target: T1, murine Sphingosine Kinase 1 (SK1) (Mus musculus, UniProt Q8CI15); experiment: Phosphorylation by SK1 in extracts of HEK293 cells overexpressing SK1 (HPLC); type: biochemical; details: cell extracts preincubated for 10 minutes
T1 construct: expressed in transfected cells; host or cells: HEK293
Protocol: The formed phosphorylated sphingoid base products were measured by HPLC.
In order to test if preincubation with C14-So or C14Δ4:6Sd has an inhibitory effect on the ability of the SK enzyme to phosphorylate the C17-So compound, cell extracts were preincubated for 10 minutes with either C14-So or C14Δ4:6Sd followed by C17-So.

ApcMin/+ mice = experiment: Intestinal polyps in ApcMin/+ mice; type: in vivo; details: gavage 2.5 mg/day, day 10, versus vehicle control
Protocol: Murine experiments were performed to investigate the in vivo effect of C14Δ4:6Sd on the development of polyps in intestinal tissue using an established animal model system having an inherited genetic defect underlying spontaneous multiple intestinal neoplasia (Min) (Polakis, 1997 Biochim Biophys. Acta. 1332:F127; Kucherlapati et al., 2001 Semin. Canc. Biol. 11:219; Sansom et al., 2004 Genes Dev. 18:1385). Ten 12 week-old male ApcMin/+ mice (available from Jackson Laboratory, Bar Harbor, Me.) were administered by gavage 2.5 mg/day C14Δ4:6Sd and ten mice received vehicle control. Mice were euthanized by CO2 asphyxiation and intestinal tissues harvested at day 10. Gross polyps were counted and measured (diameter). […] Polyps were further analyzed for phosphorylated 4EBP by western blotting and it was confirmed that sphingadienes inhibited 4EBP phosphorylation in vivo.

[2] = HT29 pretreated with inhibitor, 18 hour incubation with 10 μM

T1 sequence (Q8CI15 whole entry): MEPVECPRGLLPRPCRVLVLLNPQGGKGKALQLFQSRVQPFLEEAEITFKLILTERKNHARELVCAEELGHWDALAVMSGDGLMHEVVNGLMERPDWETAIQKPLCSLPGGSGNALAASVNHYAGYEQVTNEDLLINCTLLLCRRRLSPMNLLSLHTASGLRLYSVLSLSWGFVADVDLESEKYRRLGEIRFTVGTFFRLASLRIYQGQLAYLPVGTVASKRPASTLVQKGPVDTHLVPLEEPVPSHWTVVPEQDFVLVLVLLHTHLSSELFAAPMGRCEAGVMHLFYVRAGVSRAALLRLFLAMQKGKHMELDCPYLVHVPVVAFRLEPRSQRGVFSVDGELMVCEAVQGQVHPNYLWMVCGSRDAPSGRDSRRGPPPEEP

Q: Which “caspase 3 activity in combination with JNK inhibitor (JNK inhibitor 2)” value (HT29 cells; [2]) does the source give for `CCCCCCC/C=C/C=C/C(O)C(N)CO` (stereo not shown) [C14Δ4:6Sd, 2-aminotetradeca-4,6-diene-1,3-diol] here?
A: not synergistic

Q: What about the “caspase 3 activity in combination with MEK inhibitor (PD98059)” value (HT29 cells; [2]) of the same compound?
A: not synergistic

Q: And the “caspase 3 activity in combination with PI3K inhibitor LY294002” value (HT29 cells; [2])?
A: synergistic

Q: And the “caspase 3 activity in combination with p38 inhibitor (SB20350)” value (HT29 cells; [2])?
A: not synergistic

Q: And the “caspase 3 activity / cell death in HT29 cells transfected with myr-Akt” value (HT29 cells; constitutively active myristoylated Akt, 10 μM, 24 hours)?
A: protected against sphingadiene-induced cell death

Q: What about the viability at 10 µM (SW480 cells) of the same compound?
A: < 50%

Q: And the viability at 10 µM (DLD1 cells)?
A: < 50%

Q: What about the “LC3 activation (shift from LC3-1 to LC3-2)” value (LC3) of the same compound?
A: autophagic activity

Q: What about the “phosphorylation of 4EBP” value (4EBP) of the same compound?
A: reduced phosphorylation

Q: And the “Luciferase activity (translational activity, protein synthesis)” value (protein synthesis)?
A: reduced by more than half

Q: What about the “inhibitory effect on phosphorylation of C17-So by SK” value [1] of the same compound?
A: no inhibitory effect was observed

Q: What about the “size (diameter) of intestinal polyps” value (ApcMin/+ mice) of the same compound?
A: reduced the size

Q: And the “number of intestinal polyps” value (ApcMin/+ mice; p<0.0027)?
A: significantly reduced

Reference: US8741967B2, “Use of unsaturated sphingosine compounds as chemotherapeutic agents for the treatment of cancer” (Children's Hospital & Research Center at Oakland, priority 2007, dated 2014)
